Measurements from patent publication US20160326142A1, “PYRAZOLE CARBOXAMIDE COMPOUNDS, COMPOSITIONS AND METHODS OF USE” (Genentech, Inc., priority 2012, published 2016).
pKi: −log10 of the molar value.

molecular target: T1, ITK (Homo sapiens, UniProt Q08881); experiment: ITK enzyme assay (Caliper or LCMS peptide phosphorylation); type: biochemical; details: purified ITK (Invitrogen PV3875), 20 μM ATP, Ki by Morrison's quadratic equation
T1 construct: purchased Invitrogen PV3875
T1 sequence (Q08881 1-620): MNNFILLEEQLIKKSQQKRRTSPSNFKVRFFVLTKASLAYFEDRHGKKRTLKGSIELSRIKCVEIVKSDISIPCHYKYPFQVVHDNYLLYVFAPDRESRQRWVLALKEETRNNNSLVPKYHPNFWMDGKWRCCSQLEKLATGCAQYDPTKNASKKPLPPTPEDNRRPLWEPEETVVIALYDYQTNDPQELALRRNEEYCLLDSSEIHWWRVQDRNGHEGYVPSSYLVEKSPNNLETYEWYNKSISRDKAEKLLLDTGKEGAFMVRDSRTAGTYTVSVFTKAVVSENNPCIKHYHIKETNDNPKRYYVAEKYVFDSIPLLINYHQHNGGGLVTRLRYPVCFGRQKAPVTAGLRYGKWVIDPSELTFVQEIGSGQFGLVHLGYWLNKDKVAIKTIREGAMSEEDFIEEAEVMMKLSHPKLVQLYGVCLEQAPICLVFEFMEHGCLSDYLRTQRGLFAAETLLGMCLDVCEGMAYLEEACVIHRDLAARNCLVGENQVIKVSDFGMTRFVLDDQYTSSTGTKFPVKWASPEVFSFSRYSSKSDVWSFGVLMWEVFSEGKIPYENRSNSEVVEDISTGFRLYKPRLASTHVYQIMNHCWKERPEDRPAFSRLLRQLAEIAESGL
In short: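 Purified human ITK peptide phosphorylation, quenched with EDTA (50 mM final) for Caliper LabChip separation or TCA (5% v/v final) for UPLC-MS/MS MRM quantification. Ki derived via Morrison tight-binding equation, corrected for competitive inhibition using ATP concentration relative to Km,app.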

| Structure (SMILES) | pKi |
| --- | --- |
| CC1(C)CCc2c(C(=O)Nc3cnn(C(c4ccccc4)C4CCOCC4)c3)n[nH]c2C1 (single isomer, unassigned) [Example 113b, 6,6-dimethyl-N-(1-(phenyl(tetrahydro-2H-pyran-4-yl)methyl)-1H-pyrazol-4-yl)-4,5,6,7-tetra hydro-1H-indazole-3-carboxamide] | 9.52 |
| Cn1ccnc1C(c1cccs1)n1cc(NC(=O)c2n[nH]c3c2CCC(C)(C)C3)cn1 (single isomer, unassigned) [Example 114a, 6,6-dimethyl-N-(1-((1-methyl-1H-imidazol-2-yl)(thiophen-2-yl)methyl)-1H-pyrazol-4-yl)-4,5,6,7-tetrahydro-H-indazole-3-carboxamide] | 9.10 |
| Cn1ccnc1C(c1cccs1)n1cc(NC(=O)c2n[nH]c3c2CCC(C)(C)C3)cn1 (single isomer, unassigned) [Example 114b, 6,6-dimethyl-N-(1-((1-methyl-1H-imidazol-2-yl)(thiophen-2-yl)methyl)-1H-pyrazol-4-yl)-4,5,6,7-tetrahydro-H-indazole-3-carboxamide] | 7.92 |
| CC1(C)CCc2c(C(=O)Nc3cnn(C(c4cccc(Cl)c4)C4CCOCC4)c3)n[nH]c2C1 (single isomer, unassigned) [Example 115a, N-(1-((3-chlorophenyl)(tetrahydro-2H-pyran-4-yl)methyl)-1H-pyrazol-4-yl)-6,6-dimethyl-4,5,6,7-tetrahydro-1H-indazole-3-carboxamide] | 9.70 |
| CC1(C)CCc2c(C(=O)Nc3cnn(C(c4cccc(Cl)c4)C4CCOCC4)c3)n[nH]c2C1 (single isomer, unassigned) [Example 115b, N-(1-((3-chlorophenyl)(tetrahydro-2H-pyran-4-yl)methyl)-1H-pyrazol-4-yl)-6,6-dimethyl-4,5,6,7-tetrahydro-1H-indazole-3-carboxamide] | 8.15 |
| CC12Cc3[nH]nc(C(=O)Nc4cnn(C(c5cccnc5)C5CS(=O)(=O)C5)c4)c3CC1C2 (single isomer, unassigned) [Example 116a, N-(1-((1,1-dioxidothietan-3-yl)(pyridin-3-yl)methyl)-1H-pyrazol-4-yl)-5a-methyl-1,4,4a,5,5a,6-hexahydrocyclopropa[f]indazole-3-carboxamide] | > 10.00 |
| CC12Cc3[nH]nc(C(=O)Nc4cnn(C(c5cccnc5)C5CS(=O)(=O)C5)c4)c3CC1C2 (single isomer, unassigned) [Example 116b, N-(1-((1,1-dioxidothietan-3-yl)(pyridin-3-yl)methyl)-1H-pyrazol-4-yl)-5a-methyl-1,4,4a,5,5a,6-hexahydrocyclopropa[f]indazole-3-carboxamide] | 8.70 |
| CC1(C)CCc2c(C(=O)Nc3cnn(C(c4cccnc4)C4CS(=O)(=O)C4)c3)n[nH]c2C1 (single isomer, unassigned) [Example 117a] | 9.70 |
| CC1(C)CCc2c(C(=O)Nc3cnn(C(c4cccnc4)C4CS(=O)(=O)C4)c3)n[nH]c2C1 (single isomer, unassigned) [Example 117b] | 8.22 |
| CC1(C)CCc2c(C(=O)Nc3cnn(C(c4cccc(C(C)(C)O)c4)C4CCS(=O)(=O)CC4)c3)n[nH]c2C1 (single isomer, unassigned) [Example 119a] | 10.00 |
| CC1(C)CCc2c(C(=O)Nc3cnn(C(c4cccc(C(C)(C)O)c4)C4CCS(=O)(=O)CC4)c3)n[nH]c2C1 (single isomer, unassigned) [Example 119b] | 8.40 |
| CC12Cc3[nH]nc(C(=O)Nc4cnn(C(c5ccccc5)C5CC[S+]([O-])CC5)c4)c3CC1C2 (single isomer, unassigned) [Example 120a, 5a-methyl-N-(1-((1-oxidotetrahydro-2H-thiopyran-4-yl)(phenyl)methyl)-1H-pyrazol-4-yl)-1,4,4a,5,5a,6-hexahydrocyclopropa[f]indazole-3-carboxamide] | 10.00 |
| CC12Cc3[nH]nc(C(=O)Nc4cnn(C(c5ccccc5)C5CC[S+]([O-])CC5)c4)c3CC1C2 (single isomer, unassigned) [Example 120b, 5a-methyl-N-(1-((1-oxidotetrahydro-2H-thiopyran-4-yl)(phenyl)methyl)-1H-pyrazol-4-yl)-1,4,4a,5,5a,6-hexahydrocyclopropa[f]indazole-3-carboxamide] | > 10.00 |
| CC1(C)CCc2c(C(=O)Nc3cnn(C(CCN4CC(F)(F)C4)c4ccccc4)c3)n[nH]c2C1 (single isomer, unassigned) [Example 121a, N-(1-(3-(3,3-difluoroazetidin-1-yl)-1-phenylpropyl)-1H-pyrazol-4-yl)-6,6-dimethyl-4,5,6,7-tetrahydro-1H-indazole-3-carboxamide] | 8.22 |
| CC1(C)CCc2c(C(=O)Nc3cnn(C(CCN4CC(F)(F)C4)c4ccccc4)c3)n[nH]c2C1 (single isomer, unassigned) [Example 121b, N-(1-(3-(3,3-difluoroazetidin-1-yl)-1-phenylpropyl)-1H-pyrazol-4-yl)-6,6-dimethyl-4,5,6,7-tetrahydro-1H-indazole-3-carboxamide] | 9.00 |
| CN1CCC2(CCc3c(C(=O)Nc4cnn(Cc5ccccc5)c4)n[nH]c3C2)C1=O (single isomer, unassigned) [Example 123a, N-(1-benzyl-1H-pyrazol-4-yl)-1′-methyl-2′-oxo-1,4,5,7-tetrahydrospiro[indazole-6,3′-pyrrolidine]-3-carboxamide] | 7.06 |
| CC1(C)CCc2c(C(=O)Nc3cnn(C(c4cccc(S(C)(=O)=O)c4)C4CC4)c3)n[nH]c2C1 (single isomer, unassigned) [Example 125a, N-(1-(cyclopropyl(3-(methylsulfonyl)phenyl)methyl)-1H-pyrazol-4-yl)-6,6-dimethyl-4,5,6,7-tetrahydro-1H-indazole-3-carboxamide] | 8.70 |
| CC1(C)CCc2c(C(=O)Nc3cnn(C(c4cccc(S(C)(=O)=O)c4)C4CC4)c3)n[nH]c2C1 (single isomer, unassigned) [Example 125b, N-(1-(cyclopropyl(3-(methylsulfonyl)phenyl)methyl)-1H-pyrazol-4-yl)-6,6-dimethyl-4,5,6,7-tetrahydro-1H-indazole-3-carboxamide] | 8.00 |
| CC1(C)CCc2c(C(=O)Nc3cnn(C(c4cccc(S(C)(=O)=O)c4)C4CCOC4)c3)n[nH]c2C1 (single isomer, unassigned) [Example 126a, 6,6-dimethyl-N-(1-((3-(methylsulfonyl)phenyl)(tetrahydrofuran-3-yl)methyl)-1H-pyrazol-4-yl)-4,5,6,7-tetrahydro-1H-indazole-3-carboxamide] | 8.70 |
| CC1(C)CCc2c(C(=O)Nc3cnn(C(c4cccc(S(C)(=O)=O)c4)C4CCOC4)c3)n[nH]c2C1 (single isomer, unassigned) [Example 126b, 6,6-dimethyl-N-(1-((3-(methylsulfonyl)phenyl)(tetrahydrofuran-3-yl)methyl)-1H-pyrazol-4-yl)-4,5,6,7-tetrahydro-1H-indazole-3-carboxamide] | 10.00 |
| CC1(C)CCc2c(C(=O)Nc3cnn(C(c4cccc(S(C)(=O)=O)c4)C4CCOC4)c3)n[nH]c2C1 (single isomer, unassigned) [Example 126c, 6,6-dimethyl-N-(1-((3-(methylsulfonyl)phenyl)(tetrahydrofuran-3-yl)methyl)-1H-pyrazol-4-yl)-4,5,6,7-tetrahydro-1H-indazole-3-carboxamide] | 8.40 |
| CC1(C)CCc2c(C(=O)Nc3cnn(C(c4cccc(S(C)(=O)=O)c4)C4CCOC4)c3)n[nH]c2C1 (single isomer, unassigned) [Example 126d, 6,6-dimethyl-N-(1-((3-(methylsulfonyl)phenyl)(tetrahydrofuran-3-yl)methyl)-1H-pyrazol-4-yl)-4,5,6,7-tetrahydro-1H-indazole-3-carboxamide] | 9.70 |
| CC1(C)CCc2c(C(=O)Nc3cnn(C(c4ccccc4)C4CNCCS4(=O)=O)c3)n[nH]c2C1 (single isomer, unassigned) [Example 127a] | 9.70 |
| CC1(C)CCc2c(C(=O)Nc3cnn(C(c4ccccc4)C4CNCCS4(=O)=O)c3)n[nH]c2C1 (single isomer, unassigned) [Example 127b] | 8.22 |
| CN1CC(C(c2ccccc2)n2cc(NC(=O)c3n[nH]c4c3CCC(C)(C)C4)cn2)CN(C)C1=O (single isomer, unassigned) [Example 129a, N-(1-((1,3-dimethyl-2-oxohexahydropyrimidin-5-yl)(phenyl)methyl)-1H-pyrazol-4-yl)-6,6-di methyl-4,5,6,7-tetrahydro-1H-indazole-3-carboxamide] | 9.15 |
| CN1CC(C(c2ccccc2)n2cc(NC(=O)c3n[nH]c4c3CCC(C)(C)C4)cn2)CN(C)C1=O (single isomer, unassigned) [Example 129b, N-(1-((1,3-dimethyl-2-oxohexahydropyrimidin-5-yl)(phenyl)methyl)-1H-pyrazol-4-yl)-6,6-di methyl-4,5,6,7-tetrahydro-1H-indazole-3-carboxamide] | 8.22 |
| C#CC1(C)CCc2c(C(=O)Nc3cnn(Cc4ccccc4)c3)n[nH]c2C1 (single isomer, unassigned) [Example 130a, N-(1-benzyl-1H-pyrazol-4-yl)-6-ethynyl-6-methyl-4,5,6,7-tetrahydro-1H-indazole-3-carboxamide] | 7.60 |
